Reference: patent US20230416329A1, “A PEPTIDE WITH DISULFIDE BONDS AND INHIBITORY ACTIVITY AGAINST SERINE PROTEASES, DERIVED HYBRID PEPTIDES THEREOF, AND USES THEREOF” (INSTITUTE OF MATERIA MEDICA , CHINESE ACADEMY OF MEDICAL …, priority 2020, published 2023)
Where two headings read alike, the source gives them in different places.

Tests used:
chymotrypsin = chymotrypsin (Bos taurus, UniProt P00766); test: in vitro; settings: isolated enzyme chymotrypsin, pH 7.8, Remaining peak area (%)/chymotrypsin
Outline: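 Peptide and 0.05 μg/μL chymotrypsin were preincubated at 37 °C for 5 min, then mixed. Aliquots taken from 1.5 up to 60.0 min were quenched with 10% TFA, and remaining peptide was measured as RP-HPLC peak area.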

trypsin = molecular target: T1, trypsin (Bos taurus, UniProt P00760); test: in vitro; settings: isolated enzyme trypsin, pH 7.8
T1 sequence (P00760 24-246): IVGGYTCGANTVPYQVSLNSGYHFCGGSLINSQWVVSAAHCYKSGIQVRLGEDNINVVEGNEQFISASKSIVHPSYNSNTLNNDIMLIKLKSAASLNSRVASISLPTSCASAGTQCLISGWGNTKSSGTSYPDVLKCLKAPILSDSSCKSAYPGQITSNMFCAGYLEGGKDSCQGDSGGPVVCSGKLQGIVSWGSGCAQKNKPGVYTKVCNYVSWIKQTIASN
Outline: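 Peptides were preincubated for 5 min at 37 °C and then digested with 0.05 μg/μL trypsin solution (stock). Remaining intact peptide was quantified as RP-HPLC peak area.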

NEP24.11 = NEP24.11 (Homo sapiens, UniProt P08473); test: Tolerance of GLP-1 and its analogues to NEP24.11 (RP-HPLC remaining peak area); assay type: in vitro ADME; settings: peptide 30 μM, NEP24.11 1.0 ng/μL; for Remaining peak area (%)/NEP24.11: 0.0 h; for remaining at 0.5 h, 30 μM / remaining at 2 h, 30 μM / remaining at 4 h, 30 μM / remaining at 8 h, 30 μM: isolated NEP24.11 enzyme in buffer; for remaining at 0.5 h, 30 μM: pH 7.4, 0.5 h; for remaining at 2 h, 30 μM: pH 7.4, 2.0 h; for remaining at 4 h, 30 μM: pH 7.4, 4.0 h
Protocol: (§1) Mix by centrifugation at 8000 rpm for 30 seconds.
Arrange a certain volume of 0.04 μg/μL NEP24.11 enzyme solution in another sterile EP.

[1] = Stability of GLP-1 and its analogues in human serum; settings: 25% (v/v) human serum; for Remaining peak area (%)/human serum: 0.0 h, peptide 0.03 mM, 37° C.; for remaining at 0.5 h, 0.03 mM / remaining at 2 h, 0.03 mM / remaining at 4 h, 0.03 mM / remaining at 8 h, 0.03 mM / remaining at 12 h, 0.03 mM: human, pH 7
Protocol: The amount of the prototype peptide at 0 h was taken as 100%. At different time point, 100 μL aliquots was taken out, and 300 μL precooled anhydrous methanol was added to terminate the reaction. The remaining percentage (%) of the peptide relative to the prototype peptide at that time point was analyzed by reverse phase high performance liquid chromatography. The experiment was performed with three replicates, and data were expressed as “mean±standard deviation”. The sample was subjected to high-speed centrifugation, supernatant extraction, and freeze drying, followed by dissolution in 50% (v/v) methanol/water solution, and analyzed by reverse phase high performance liquid chromatography. The experiment was performed with three replicates, and data were expressed as “mean±standard deviation”.
Invert and mix thoroughly, then leave at −20° C. overnight. At the same time, take three sterile EP tubes and add 25 μL of human serum, 75 μL of 50 mM Tris-HCl buffer (pH7.0), and 300 μL of pre-cold absolute methanol. Invert and mix thoroughly, then leave at −20° C. overnight as a negative control, so as to eliminate the interference of proteins or peptides contained in human serum at the peak time of the target peptide after methanol precipitation.
Arrange a certain volume of human serum in another sterile EP. Incubate the EP tubes containing peptides and serum at 37° C. for 10 min, and add 137.5 μL of human serum to each EP tube containing peptides and mix well. […] Start timing and remove 100 μL of reaction solution at 0.5, 2.0, 4.0, 8.0, and 12.0 h later, respectively. Add 300 μL of pre-cold absolute methanol. Invert and mix thoroughly, then leave at −20° C. overnight. […] There are three replicates at each time point, and the peak area of the peptide at each time point is detected using reverse phase high-performance liquid chromatography (RP-HPLC). The ratio of the remaining peak area of the sample at detection time T (h) to the peak area of the prototype peptide at 0 h is calculated as the remaining percentage (%) of the peptide.

DPP-IV = DPP-IV (Homo sapiens, UniProt P27487); test: Tolerance of GLP-1 and its analogues to DPP-IV (RP-HPLC remaining peak area); assay type: in vitro ADME; settings: peptide 25 μM, DPP-IV 0.5 ng/μL, 37° C.; for Remaining peak area (%)/DPP-IV: 0.0 h; for remaining at 0.5 h, 25 μM / remaining at 2 h, 25 μM / remaining at 4 h, 25 μM / remaining at 8 h, 25 μM / remaining at 12 h, 25 μM: isolated DPP-IV enzyme in buffer, pH 8
Protocol: as §1
(2) Arrange a certain volume of 0.005 μg/μL DPP-IV solution in another sterile EP.

[2] = pH 7.4, 8.0 h, 37° C., read-out: Remaining peak area (%)/NEP24.11

Chain of DPP-IV (P27487 whole entry, species assumed): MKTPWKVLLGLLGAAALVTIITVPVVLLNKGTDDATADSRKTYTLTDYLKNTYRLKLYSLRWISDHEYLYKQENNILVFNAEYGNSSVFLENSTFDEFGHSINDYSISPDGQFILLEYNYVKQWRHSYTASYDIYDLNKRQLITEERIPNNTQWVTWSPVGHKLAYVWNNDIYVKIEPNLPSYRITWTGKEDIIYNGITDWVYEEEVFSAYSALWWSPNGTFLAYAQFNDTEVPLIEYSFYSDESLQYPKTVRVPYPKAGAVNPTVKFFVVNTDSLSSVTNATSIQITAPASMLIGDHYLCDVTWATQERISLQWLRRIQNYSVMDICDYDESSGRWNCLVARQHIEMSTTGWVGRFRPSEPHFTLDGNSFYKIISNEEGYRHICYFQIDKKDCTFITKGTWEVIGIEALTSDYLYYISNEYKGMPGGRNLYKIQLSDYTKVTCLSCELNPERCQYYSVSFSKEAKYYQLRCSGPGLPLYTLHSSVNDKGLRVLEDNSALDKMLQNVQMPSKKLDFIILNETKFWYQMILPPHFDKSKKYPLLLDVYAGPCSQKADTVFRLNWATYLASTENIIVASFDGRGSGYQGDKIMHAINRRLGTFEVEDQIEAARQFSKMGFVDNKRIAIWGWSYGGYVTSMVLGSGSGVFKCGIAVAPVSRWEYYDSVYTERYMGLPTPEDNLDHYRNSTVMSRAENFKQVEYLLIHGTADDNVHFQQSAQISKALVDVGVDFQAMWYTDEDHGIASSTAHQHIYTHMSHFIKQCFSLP
Chain of NEP24.11 (P08473 whole entry): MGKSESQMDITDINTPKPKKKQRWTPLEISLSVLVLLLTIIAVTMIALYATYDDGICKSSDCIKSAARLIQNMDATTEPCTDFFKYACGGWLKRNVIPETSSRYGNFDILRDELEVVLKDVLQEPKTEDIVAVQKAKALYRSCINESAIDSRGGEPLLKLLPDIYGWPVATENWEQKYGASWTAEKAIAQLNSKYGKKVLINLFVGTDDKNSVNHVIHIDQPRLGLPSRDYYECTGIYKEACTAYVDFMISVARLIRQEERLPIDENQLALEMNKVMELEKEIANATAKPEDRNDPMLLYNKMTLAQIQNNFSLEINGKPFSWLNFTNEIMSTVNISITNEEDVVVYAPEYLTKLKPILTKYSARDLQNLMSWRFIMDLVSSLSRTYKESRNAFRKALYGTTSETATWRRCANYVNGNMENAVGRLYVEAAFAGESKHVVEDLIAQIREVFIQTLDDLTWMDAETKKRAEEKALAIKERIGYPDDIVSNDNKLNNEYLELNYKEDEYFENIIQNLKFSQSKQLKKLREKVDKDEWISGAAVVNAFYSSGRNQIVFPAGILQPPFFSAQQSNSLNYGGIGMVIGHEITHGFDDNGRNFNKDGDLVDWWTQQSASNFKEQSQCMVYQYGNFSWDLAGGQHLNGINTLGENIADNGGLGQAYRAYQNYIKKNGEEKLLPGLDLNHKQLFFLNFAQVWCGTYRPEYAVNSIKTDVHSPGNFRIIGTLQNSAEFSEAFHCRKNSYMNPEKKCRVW

| SMILES | remaining at 0.025 h, 60 μM (chymotrypsin) | remaining at 0.075 h, 60 μM (chymotrypsin) | remaining at 0.1 h, 60 μM (chymotrypsin) | remaining at 0.15 h, 60 μM (chymotrypsin) | remaining at 0.025 h, 60 μM (trypsin) | remaining at 0.05 h, 60 μM (trypsin) | remaining at 0.075 h, 60 μM (trypsin) | remaining at 0.1 h, 60 μM (trypsin) | remaining at 0.15 h, 60 μM (trypsin) | remaining at 0.25 h, 60 μM (trypsin) | remaining at 0.5 h, 60 μM (trypsin) | remaining at 1 h, 60 μM (trypsin) | Remaining peak area (%)/NEP24.11 (NEP24.11; 37° C.) | remaining at 0.5 h, 30 μM (NEP24.11; 37° C.) | remaining at 2 h, 30 μM (NEP24.11; 37° C.) | remaining at 4 h, 30 μM (NEP24.11; 37° C.) | remaining at 8 h, 30 μM (NEP24.11; [2]) | Remaining peak area (%)/human serum [1] | serum stability (in words) [1] | remaining at 0.5 h, 0.03 mM [1] | other results |
| --- | --- | --- | --- | --- | --- | --- | --- | --- | --- | --- | --- | --- | --- | --- | --- | --- | --- | --- | --- | --- | --- |
| CC[C@H](C)[C@H](NC(=O)[C@H](Cc1ccccc1)NC(=O)[C@H](CCC(=O)O)NC(=O)[C@H](CCCCN)NC(=O)[C@H](C)NC(=O)[C@H](C)NC(=O)[C@H](CCC(N)=O)NC(=O)CNC(=O)[C@H](CCC(=O)O)NC(=O)[C@H](CC(C)C)NC(=O)[C@H](Cc1ccc(O)cc1)NC(=O)[C@H](CO)NC(=O)[C@H](CO)NC(=O)[C@@H](NC(=O)[C@H](CC(=O)O)NC(=O)[C@H](CO)NC(=O)[C@@H](NC(=O)[C@H](Cc1ccccc1)NC(=O)[C@@H](NC(=O)CNC(=O)[C@H](CCC(=O)O)NC(=O)[C@H](C)NC(=O)[C@H](Cc1c[nH]cn1)NC(=O)CNC(=O)CNC(=O)[C@@H](NC(=O)[C@@H]1CCCN1C(=O)[C@@H](NC(=O)CNC(=O)CNC(=O)[C@@H]1CCCN1C(=O)[C@H](Cc1ccccc1)NC(=O)[C@@H]1CSSC[C@H](NC(=O)[C@H](CCCNC(=N)N)NC(=O)CN)C(=O)N[C@@H]([C@@H](C)O)C(=O)N[C@@H](CCCCN)C(=O)N[C@@H](CO)C(=O)N[C@@H]([C@@H](C)CC)C(=O)N2CCC[C@H]2C(=O)N2CCC[C@H]2C(=O)N[C@@H]([C@@H](C)CC)C(=O)N1)[C@@H](C)CC)[C@@H](C)CC)[C@@H](C)O)[C@@H](C)O)C(C)C)C(=O)N[C@@H](C)C(=O)N[C@@H](Cc1c[nH]c2ccccc12)C(=O)N[C@@H](CC(C)C)C(=O)N[C@H](C(=O)N[C@@H](CCCCN)C(=O)NCC(=O)N[C@@H](CCCNC(=N)N)C(=O)NCC(=O)NCC(=O)N[C@@H](CCCCN)C(=O)O)C(C)C [BT1-D-GLP-1] | 68.7 ± 1.6% | 57.4 ± 2.7% | 53.1 ± 0.5% | 49.8 ± 2.8% | 97.3 ± 8.8% | 96.6 ± 2% | 90.4 ± 2.4% | 90.3 ± 2.5% | 89.7 ± 3.4% | 87.3 ± 2.6% | 88.6 ± 4.4% | 87.7 ± 6.2% | 100.0 ± 0.0% | 88.2 ± 2.4% | 85.2 ± 0.5% | 79.1 ± 3.2% | 74 ± 1.3% | 100.0 ± 0.0% | good serum stability | 68.9 ± 7.1% | remaining at 0.05 h, 60 μM (chymotrypsin): 61.9 ± 1.5%; remaining at 2 h, 0.03 mM [1]: 95.1 ± 7.5%; remaining at 4 h, 0.03 mM [1]: 89.4 ± 7.9%; remaining at 8 h, 0.03 mM [1]: 54.8 ± 4.1%; remaining at 12 h, 0.03 mM [1]: 49.7 ± 2.5%; Remaining peak area (%)/DPP-IV (DPP-IV): 100.0 ± 0.0%; remaining at 0.5 h, 25 μM (DPP-IV): 72.3 ± 2.4%; remaining at 2 h, 25 μM (DPP-IV): 75.3 ± 1.5%; remaining at 4 h, 25 μM (DPP-IV): 72.6 ± 2%; remaining at 8 h, 25 μM (DPP-IV): 82 ± 3.2%; remaining at 12 h, 25 μM (DPP-IV): 82.5 ± 4.9% |
| CC[C@H](C)[C@H](NC(=O)[C@H](Cc1ccccc1)NC(=O)[C@H](CCC(=O)O)NC(=O)[C@H](CCCCN)NC(=O)[C@H](C)NC(=O)[C@H](C)NC(=O)[C@H](CCC(N)=O)NC(=O)CNC(=O)[C@H](CCC(=O)O)NC(=O)[C@H](CC(C)C)NC(=O)[C@H](Cc1ccc(O)cc1)NC(=O)[C@H](CO)NC(=O)[C@H](CO)NC(=O)[C@@H](NC(=O)[C@H](CC(=O)O)NC(=O)[C@H](CO)NC(=O)[C@@H](NC(=O)[C@H](Cc1ccccc1)NC(=O)[C@@H](NC(=O)CNC(=O)[C@H](CCC(=O)O)NC(=O)[C@H](C)NC(=O)[C@H](Cc1c[nH]cn1)NC(=O)CNC(=O)CNC(=O)[C@@H](NC(=O)[C@@H]1CCCN1C(=O)[C@@H](NC(=O)CNC(=O)CNC(=O)[C@H](Cc1ccccc1)NC(=O)[C@@H]1CSSC[C@H](N)C(=O)NCC(=O)N[C@@H](CCCNC(=N)N)C(=O)N[C@@H](C)C(=O)N[C@@H]([C@@H](C)O)C(=O)N[C@@H](CCCCN)C(=O)N[C@@H](CO)C(=O)N[C@@H]([C@@H](C)CC)C(=O)N2CCC[C@H]2C(=O)N2CCC[C@H]2C(=O)N[C@@H]([C@@H](C)CC)C(=O)N1)[C@@H](C)CC)[C@@H](C)CC)[C@@H](C)O)[C@@H](C)O)C(C)C)C(=O)N[C@@H](C)C(=O)N[C@@H](Cc1c[nH]c2ccccc12)C(=O)N[C@@H](CC(C)C)C(=O)N[C@H](C(=O)N[C@@H](CCCCN)C(=O)NCC(=O)N[C@@H](CCCNC(=N)N)C(=O)NCC(=O)NCC(=O)N[C@@H](CCCCN)C(=O)O)C(C)C [BT9-D-GLP-1] | 54.9 ± 6.6% | 28.7 ± 2.4% | 19.2 ± 1.3% | 9 ± 0.9% | 76.6 ± 3% | 76.7 ± 9.1% | 77 ± 2.4% | 79.2 ± 3.1% | 80.2 ± 1% | 79.1 ± 2.2% | 75.8 ± 3.8% | 77.7 ± 0.5% | 100.0 ± 0.0% | 79.8 ± 3.5% | 60.2 ± 1.8% | 56.1 ± 3.4% | 48.4 ± 1.4% | 100.0 ± 0.0% | good serum stability | 65.6 ± 14.7% | remaining at 2 h, 0.03 mM [1]: 38.5 ± 13.3%; remaining at 4 h, 0.03 mM [1]: 28%; remaining at 8 h, 0.03 mM [1]: 13.7%; remaining at 12 h, 0.03 mM [1]: 19.6 ± 1.2%; Remaining peak area (%)/DPP-IV (DPP-IV): 100.0 ± 0.0%; remaining at 0.5 h, 25 μM (DPP-IV): 81.1 ± 1%; remaining at 2 h, 25 μM (DPP-IV): 77.9 ± 2.9%; remaining at 4 h, 25 μM (DPP-IV): 79.1 ± 1.3%; remaining at 8 h, 25 μM (DPP-IV): 78.8 ± 0.6%; remaining at 12 h, 25 μM (DPP-IV): 72.4 ± 1.9% |
| CC[C@H](C)[C@H](NC(=O)[C@H](Cc1ccccc1)NC(=O)[C@H](CCC(=O)O)NC(=O)[C@H](CCCCN)NC(=O)[C@H](C)NC(=O)[C@H](C)NC(=O)[C@H](CCC(N)=O)NC(=O)CNC(=O)[C@H](CCC(=O)O)NC(=O)[C@H](CC(C)C)NC(=O)[C@H](Cc1ccc(O)cc1)NC(=O)[C@H](CO)NC(=O)[C@H](CO)NC(=O)[C@@H](NC(=O)[C@H](CC(=O)O)NC(=O)[C@H](CO)NC(=O)[C@@H](NC(=O)[C@H](Cc1ccccc1)NC(=O)[C@@H](NC(=O)CNC(=O)[C@H](CCC(=O)O)NC(=O)[C@H](C)NC(=O)[C@H](Cc1c[nH]cn1)NC(=O)CNC(=O)CNC(=O)[C@@H](NC(=O)[C@@H]1CCCN1C(=O)[C@@H](NC(=O)CN)[C@@H](C)CC)[C@@H](C)CC)[C@@H](C)O)[C@@H](C)O)C(C)C)C(=O)N[C@@H](C)C(=O)N[C@@H](Cc1c[nH]c2ccccc12)C(=O)N[C@@H](CC(C)C)C(=O)N[C@H](C(=O)N[C@@H](CCCCN)C(=O)NCC(=O)N[C@@H](CCCNC(=N)N)C(=O)NCC(=O)NCC(=O)N[C@@H](CCCCN)C(=O)NCC(=O)N[C@@H](CCCNC(=N)N)C(=O)N[C@H]1CSSC[C@@H](C(=O)N[C@@H](Cc2ccccc2)C(=O)N2CCC[C@H]2C(=O)O)NC(=O)[C@H]([C@@H](C)CC)NC(=O)[C@@H]2CCCN2C(=O)[C@@H]2CCCN2C(=O)[C@H]([C@@H](C)CC)NC(=O)[C@H](CO)NC(=O)[C@H](CCCCN)NC(=O)[C@H]([C@@H](C)O)NC1=O)C(C)C [D-GLP-1-BT1] | 67.1 ± 4.9% | 47.1 ± 1.4% | 40.4 ± 1% | 31.3 ± 0.7% | 96.9 ± 3.1% | 100 ± 2.5% | 96.5 ± 2.1% | 97.3 ± 3.6% | 98 ± 3.1% | 95.9 ± 3.2% | 98.1 ± 4.4% | 91 ± 7.6% | 100.0 ± 0.0% | 80.3 ± 3.6% | 85.8 ± 2.7% | 80.1 ± 2.1% | 78.2 ± 3.9% | 100.0 ± 0.0% | good serum stability | 88.2% | remaining at 0.05 h, 60 μM (chymotrypsin): 55.2 ± 0.6%; remaining at 8 h, 30 μM (NEP24.11; pH 7.4, 8 hours, read-out: remaining amount after NEP24.11 hydrolysis): ~80%; remaining at 2 h, 0.03 mM [1]: 92 ± 5.9%; remaining at 4 h, 0.03 mM [1]: 78.7 ± 5.7%; remaining at 8 h, 0.03 mM [1]: 58.2%; remaining at 12 h, 0.03 mM [1]: 43.6 ± 0.3%; Remaining peak area (%)/DPP-IV (DPP-IV): 100.0 ± 0.0%; remaining at 0.5 h, 25 μM (DPP-IV): 88 ± 6.2%; remaining at 2 h, 25 μM (DPP-IV): 95.9 ± 2.3%; remaining at 4 h, 25 μM (DPP-IV): 96.9 ± 2%; remaining at 8 h, 25 μM (DPP-IV): 92 ± 3.9%; remaining at 12 h, 25 μM (DPP-IV): 79 ± 4.6% |
